# Results reported in US5208223A, “Phosphocholine derivative inhibitors of phospholipase A2” (American Cyanamid Company, priority 1992, dated 1993).
# “And” between values parts separate entries of the source, which are not always exact repeats. Equal entries are not always repeated. Structures can show the parent of a compound that is named as a salt. Where two headings read alike, the source gives them in different places.
# Tests used:
# Type in all cases: biochemical
# porcine pancreatic PLA2 [1] = target: T1, porcine pancreatic PLA2 (Sus scrofa, UniProt P00592); experiment: MHPLA2 assay: in vitro porcine pancreatic phospholipase A2, mixed micelle design, [s]=10 μm
# T1 construct: purchased Sigma
# Experimental: (§1) Phospholipase A2 activity was measured by a radiochemical assay in which labeled synthetic phosphatidylcholine substrate is converted by porcine pancreatic PLA2 to free radiolabeled arachidonate and lyso PC. Radiolabeled arachidonate is extracted from the reaction mixture and separated from unreacted substrate by column chromatography or TLC. Radioactivity (cpm) in samples is quantitated by liquid scintillation counting. Specific details are as follows:
# (§2) Labeled substrate(1-stearyl-2-^3 H-arachidonylphosphatidylcholine; Amersham, sp. act. 84 (uCi/mmole, 0.025 to 0.2 uCi/assay tube and unlabeled substrates (Avanti), in sufficient quantity to give 20,000 cpm to 50,000 cpm and 10 μM to 1,000 μM final concentration/assay tube are dried under a stream of nitrogen. The PLA2 and mPLA2 assays utilized a […] substrate concentration. The mHPLA2 and HPLA2 assays (vida infra) utilized a 10 μM substrate concentration and the SmPLA2 assay utilized a substrate concentration ranging from 100 to 1000 μm. The substrate is then redissolved in 0.1M tris-HCl buffer, pH 9.0 containing 10 mM CaCl2 and 10 mM Na taurocholate detergent. The mixture is sonicated in a Kontes Sonifier to yield a homogeneous dispersion. The "mixed" micellar substrate is clear. An aliquot is reserved for a cpm count (total substrate). The total reaction volume is 500 μL; siliconized glassware or plasticware is used throughout. Enzyme (Sigma, sp. act.>690 U/mg protein and preferably 900 U/mg protein) is diluted 1:750 or 1:1000 in 0.1M tris-HCl buffer, pH 9.0 (without Ca^++ and detergent). Enzyme dilution depends on substrate concentration and required enzyme concentration.
# (§3) The substrate in buffer is kept on ice until the reaction is started. The reaction is started by adding 10 μL of diluted enzyme solution to 490 μL of micellar substrate solution. Samples are incubated in a 37° C. water bath for 15 minutes with gentle mixing. The reaction is terminated by the addition of 100 μL of 1M fresh trichloroacetic acid (TCA) solution and chilling the tubes on ice for 30 minutes.
# (§4) Samples (600 μL) are extracted with 3 ml CHCl3 /MeOH (2:1) for thin layer chromatography or in hexane/ether (9:1) for column chromatography. The phases are separated by gentle centrifugation at 700 rpm×5'. The organic phase is recovered.
# (§5) Labeled arachidonate extracted with CHCl3 /MeOH is separated on silica gel G TLC plates (Analtech). Twenty μL of a 2 mg/ml internal standard solution of arachidonic acid (Sigma) is combined with 2-3 ml of the organic phase. The entire mixture is dried under nitrogen and redissolved in 50 μL of CHCl3 /MeOH (2:1). A 20 μL sample is counted in 10 ml of Beckman Redi-solv HP and spotted on silica gel G plates. The solvent system used to develop the plate is CHCl3 /MeOH/13.5N NH3 /H2 O (70:30:4:1). Plates are developed in a glass chamber for 1-11/2 hours, air dried, and the spots visualized in an iodine vapor chamber. Standards of phosphatidylcholine, lyso PC, and arachidonic acid (Sigma) are made as 2 mg/ml stocks in CHCl3 /MeOH (2:1) and spotted on plates. Spots corresponding to arachidonate and phospholipid are scraped and counted in 10 ml Beckman Redi-Solv HP scintillation fluid.
# (§6) Samples are extracted with hexane/ether and the upper organic phase recovered. An aliquot is applied to a Silicar CC4 (Malincrodt) column. Columns are prepared using 1 ml of a 1:1 slurry of silicar CC4 in hexane/ether in a Pasteur pipet (approx. 2 cm height). Columns are rinsed with 500 μL of hexane/ether before adding the sample (300-600 μL) to the column. Columns are eluted with a total of 6 ml of hexane/ether. The 6 ml sample is counted in 10 ml of Beckman Redi-Solv HP scintillation fluid.
# (§7) or the phospholipase A2 assay, compounds are prepared as 1 mg/ml stock solutions in MeOH and diluted appropriately in PBS. […]
# porcine pancreatic PLA2 [2] = target: T1, porcine pancreatic PLA2; experiment: MPLA2 assay: in vitro porcine pancreatic phospholipase A2, mixed micelle design, substrate 2 nM; settings: for inhibition at 10 µg/mL: dose 10 μ/ml; for inhibition at 20 µg/mL: dose 20 μ/ml; for IC50 / % Inh.: subs. con. 2
# Experimental: as §1, §2, §3, §4, §5, §6, §7
# porcine pancreatic PLA2 [3] = target: T1, porcine pancreatic PLA2; experiment: PLA2 assay: in vitro porcine pancreatic phospholipase A2, preincubation of drug+enzyme, substrate 2 nM; settings: preincubation, subs. con. 2; for inhibition at 25 µg/mL: dose 25 μ/ml; for inhibition at 50 µg/mL: dose 50 μ/ml
# Experimental: as §1, §2, §3, §4, §5, §6
# or the phospholipase A2 assay, compounds are prepared as 1 mg/ml stock solutions in MeOH and diluted appropriately in PBS.
# [4] = dose 10 μ/ml, subs. con. 10, read-out: % Inh.
# [5] = dose 25 μ/ml, subs. con. 10, read-out: % Inh.
# [6] = dose 10 μ/ml, read-out: % Inh. Avg.
# [7] = dose 25 μ/ml, subs. con. 10, read-out: % Inh. Avg.
# [8] = read-out: IC50 Avg. (converted)
# T1 sequence (P00592 23-146): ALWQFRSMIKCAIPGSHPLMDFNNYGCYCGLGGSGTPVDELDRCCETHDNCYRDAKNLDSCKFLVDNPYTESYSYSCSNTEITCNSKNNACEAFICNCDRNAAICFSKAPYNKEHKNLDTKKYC
SMILES,inhibition at 10 µg/mL (porcine pancreatic PLA2 [1]; [4]) [%],"inhibition at 10 µg/mL (porcine pancreatic PLA2 [2]; subs. con. 2, read-out: % Inh.) [%]","inhibition at 20 µg/mL (porcine pancreatic PLA2 [2]; subs. con. 2, read-out: % Inh.) [%]",IC50 (porcine pancreatic PLA2 [2]) [µM],"inhibition at 10 µg/mL (porcine pancreatic PLA2 [3]; dose 10 μ/ml, read-out: % Inh.) [%]","inhibition at 20 µg/mL (porcine pancreatic PLA2 [3]; dose 20 μ/ml, read-out: % Inh.) [%]",IC50 (porcine pancreatic PLA2 [3]; read-out: IC50 (converted)),inhibition at 25 µg/mL (porcine pancreatic PLA2 [1]; [7]) [%],also measured
CCCCCCCCCCCCCCCCOCC(COP(=O)([O-])OCC[N+](C)(C)C)CP(=O)(OCC)OCC (stereo not drawn),18,36,60,27.3,71,81,8.12 µM,–,"inhibition at 20 µg/mL (porcine pancreatic PLA2 [1]; dose 20 μ/ml, subs. con. 10): 44%; inhibition at 25 µg/mL (porcine pancreatic PLA2 [1]; [5]): 45%; IC50 (porcine pancreatic PLA2 [1]; subs. con. 10, read-out: IC50 (converted)): 91.3 µM and 265 µM; inhibition at 10 µg/mL (porcine pancreatic PLA2 [3]; [6]): 74%"
"CCCCCCCCCCCCCCCCOCC(COP(=O)([O-])OCC[N+](C)(C)C)OP(=O)(OC)OCCCCC (single isomer, unassigned) [3,5,8,10-Tetraoxa-4,9-diphosphapentadecan-1-aminium, 7-[(hex] [3,5,8,10-Tetraoxa-4,9-diphosphapentadecan-1-aminium, 7-[(hexadecyloxy)methyl]-4-hydroxy-9-methoxy-N,N,N-trimethyl-, hydroxide, 4-(inner salt),4,9-dioxide, more polar isomer]",–,–,–,–,–,–,–,–,% Inh. (porcine pancreatic PLA2 [2]; dose 25 μ/ml): STIM; % Inh. (porcine pancreatic PLA2 [3]; dose 10 μ/ml): 82%; % Inh. (porcine pancreatic PLA2 [3]; dose 20 μ/ml): 89%
"CCCCCCCCCCCCCCCCOCC(COP(=O)([O-])OCC[N+](C)(C)C)OP(=O)(OC)OCCCCC (single isomer, unassigned) [3,5,8,10-Tetraoxa-4,9-diphosphapentadecan-1-aminium, 7-[(hexadecyloxy)methyl]-4-hydroxy-9-methoxy-N,N,N-trimethyl-, hydroxide, 4-(inner salt),4,9-dioxide, more polar isomer]",0,–,–,–,–,–,3.87 µM,–,–
"CCCCCOCC(COP(=O)([O-])OCC[N+](C)(C)C)OP(=O)(O)OCCCCC (single isomer, unassigned; less polar) [3,5,8,10-Tetraoxa-4,9-diphosphapentadecan-1-aminium, 4,9-dihydroxy-N,N,N-trimethyl-7-[(pentyloxy)methyl]-, hydroxide, 4-(inner salt), 4,9-dioxide, less polar isomer]",–,–,–,–,20,17,–,–,inhibition at 25 µg/mL (porcine pancreatic PLA2 [1]; [5]): 12%; % Inh. (porcine pancreatic PLA2 [2]; dose 25 μ/ml): STIM
"CCCCCCCCCCCCCCCCOCC(COP(=O)([O-])OCC[N+](C)(C)C)OCC(=O)O (stereo not drawn) [2,5,7-Trioxa-6-phosphanonan-9-aminium, 1-carboxy-3-[(hexadecyloxy)methyl]-6-hydroxy-N,N,N-trimethyl-, hydroxide, inner salt, 6-oxide]",6,–,–,–,–,44,–,30,–
"CCCCCCCCCCCCCCCCOCC(COP(=O)([O-])OCC[N+](C)(C)C)OP(=O)(O)OCCCCCCCCCCCCCCCC (stereo not drawn) [3,5,8,10-Tetraoxa-4,9-diphosphahexacosan-1-aminium, 7-[(hexa] [3,5,8,10-Tetraoxa-4,9-diphosphahexacosan-1-aminium, 7-[(hexadecyloxy)methyl]-4,9-dihydroxy-N,N,N-trimethyl-, hydroxide, 4-inner salt), 4,9-dioxide]",–,–,–,–,–,–,–,–,"% Inh. (porcine pancreatic PLA2 [1]; dose 10 μ/ml, subs. con. 10): STIM; % Inh. (porcine pancreatic PLA2 [1]; dose 25 μ/ml, subs. con. 10): STIM"
"CCCCCCCCCCCCCCCCOC[C@@H](COP(=O)([O-])OCC[N+](C)(C)C)OP(=O)(O)OCCCCCCCCCCCCCCCC [3,5,8,10-Tetraoxa-4,9-diphosphahexacosan-1-aminium, 7-[(hexadecyloxy)methyl]-4,9-dihydroxy-N,N,N-trimethyl-, hydroxide, 4-(inner salt), 4,9-dioxide, (7S)]",–,–,–,–,–,–,–,–,"% Inh. (porcine pancreatic PLA2 [1]; dose 10 μ/ml, subs. con. 10): STIM; % Inh. (porcine pancreatic PLA2 [1]; dose 25 μ/ml, subs. con. 10): STIM; inhibition at 10 µg/mL (porcine pancreatic PLA2 [3]; [6]): 17%; inhibition at 20 µg/mL (porcine pancreatic PLA2 [3]; dose 20 μ/ml, read-out: % Inh. Avg.): 16%; inhibition at 25 µg/mL (porcine pancreatic PLA2 [3]; read-out: % Inh.): 8%"
"CCCCCCCCCCCCCCCCOCC(COP(=O)([O-])OCC[N+](C)(C)C)OP(=O)(OC)OCCCCCCCCCCCCCCCC (stereo not drawn) [3,5,8,10-Tetraoxa-4,9-diphosphahexacosan-1-aminium, 7-[(hexadecyloxy)methyl]-4-hydroxy-9-methoxy-N,N,N-trimethyl-, hydroxide, inner salt, 4,9-dioxide]",–,–,–,–,–,–,4 µM and 3.5 µM,62,IC50 (porcine pancreatic PLA2 [3]; [8]): 3.75 µM
"CCCCCCCCCCCCCCCCOCC(COP(=O)([O-])OCC[N+](C)(C)C)OP(=O)(OC)OCCCCCCCCCCCCCCCC (stereo not drawn) [3,5,8,10-Tetraoxa-4,9-diphosphahexacosan-1-aminium, 7-[(hexadecyloxy)methyl]-4-hydroxy-9-methoxy-N,N,N-trimethyl-hydroxide, inner salt, 4,9-dioxide]",0,–,–,–,61,65,7.5 µM and 5.62 µM and 7.25 µM,–,inhibition at 25 µg/mL (porcine pancreatic PLA2 [3]; read-out: % Inh.): 71%; inhibition at 25 µg/mL (porcine pancreatic PLA2 [3]; read-out: % Inh. Avg.): 77%; inhibition at 50 µg/mL (porcine pancreatic PLA2 [3]; read-out: % Inh.): 73% and 88%; inhibition at 50 µg/mL (porcine pancreatic PLA2 [3]; read-out: % Inh. Avg.): 80%; IC50 (porcine pancreatic PLA2 [3]; [8]): 6.75 µM
"CCCCCCCCCCCCCCCCOCC(COP(=O)([O-])OCC[N+](C)(C)C)OC(=O)CBr (stereo not drawn) [3,5,9-Trioxa-4-phosphapentacosan-1-aminium, 7-[(bromoacetyl)oxy]-4-hydroxy-N,N,N-trimethyl-, hydroxide, inner salt, 4-oxide]",35,52,85,8.13,–,–,–,50,"inhibition at 10 µg/mL (porcine pancreatic PLA2 [1]; dose 10 μ/ml, subs. con. 10, read-out: % Inh. Avg.): 32%; inhibition at 25 µg/mL (porcine pancreatic PLA2 [1]; [5]): 78%; IC50 (porcine pancreatic PLA2 [1]; subs. con. 10, read-out: IC50 Avg. (converted)): 83 µM"
"CCCCCCCCCCCCCCCCOCC(COP(=O)([O-])OCC[N+](C)(C)C)CC1CO1 (stereo not drawn) [4-Hydroxy-N,N,N-trimethyl-7-(oxiranylmethyl)-3,5,9-trioxa-4-phosphapentacosan-1-aminium, hydroxide, inner salt, 4-oxide]",–,–,–,–,71,88,4.6 µM,–,"inhibition at 25 µg/mL (porcine pancreatic PLA2 [2]; dose 25 μ/ml, subs. con. 2, read-out: % Inh.): 85%; inhibition at 10 µg/mL (porcine pancreatic PLA2 [3]; [6]): 74%"
"CCCCCCCCCCCCCCCCOCC(O)(COP(=O)([O-])OCC[N+](C)(C)C)CC(N)CC (stereo not drawn) [7-(2-Aminobutyl)-4,7-dihydroxy-N,N,N-trimethyl-3,5,9-trioxa-4-phosphapentacosan-1-aminium, hydroxide, inner salt, 4-oxide]",–,25,61,34.7,89,94,2.35 µM,–,–
"CCCCCCCCCCCCCCCCOCC(COP(=O)([O-])OCC[N+](C)(C)C)OC(=O)CCl (stereo not drawn) [7-[(Chloroacetyl)oxy]-4-hydroxy-N,N,N-trimethyl-3,5,9-trioxa-4-phosphapentacosan-1-aminium, hydroxide, inner salt, 4-oxide]",27,46,72,17.4,–,–,–,3,–
